pIC50: −log10 of the molar value. Several values for one entry are separate records, joined by “and”; a condition that tells them apart may be missing. Equal values may be shown once.
Key:
NHBE cells = assay: Apoptosis assay (TUNEL; DNA fragmentation); format: cell-based
Protocol: Apoptosis assay. Normal, premalignant, and malignant HBE cells were exposed to v various doses of deguelin for 3 days. […] Both adherent and floating cells were combined for the assessment of apoptosis using the APO-BRDU staining kit (Phoenix Flow Systems, San Diego, Calif.). Briefly, floating and attached cells dispersed with trypsin-EDTA were pelleted, washed, and fixed by 1% paraformaldehyde followed by 70% ethanol. The fixed cells were washed and incubated with DNA-labeling solution containing terminal deoxynucleotidyl transferase (TdT) reaction buffer, TdT enzyme, and bromodeoxyuridine triphosphate (Br-dUTP). Cells were rinsed, resuspended with fluorescein-PRB-I antibody solution, and analyzed by flow cytometry in the presence of PI/RNase solution. […] A dual display of DNA area (linear red fluorescence) and Br-dUTP incorporation (FITC-PRB-1) was used to determine the percentage of apoptotic cells.
The percentage of dead cells was determined by fluorescent-activated cell sorting (FACS) analysis of PI-stained nuclei. Apoptosis was also determined by the detection of nucleosomal DNA fragmentation, which was measured using the TACS apoptotic DNA Jaddering kit (Trevigen, Inc., Gaithersburg, Md.) according to the manufacturer's protocol. […] Apoptosis was analyzed using the APO-BRDU staining kit (Phoenix Flow Systems) as described above.

H661 = assay: MTT assay, growth inhibition by deguelin or deguelin derivatives; format: cell-based; settings: 3 days
[1] = tested on: premalignant (1799, 1198) and malignant (1170) HBE cell lines; assay: MTT assay, growth of premalignant and malignant HBE cell lines; format: cell-based; settings: HBE, 72 h, read-out: IC50, growth of premalignant and malignant HBE cell lines
From the text: Cells and Cell Cultures. […] Tumors developed 6 months later. […] (Klein-Szanto et al., 1992).

NSCLC cells = assay: MTT assay, growth inhibition of NSCLC cells by deguelin and deguelin derivatives (Table 2, FIG. 7); format: cell-based; settings: 72 h, depending on the cell line, 3 days
Cal1 = assay: MTT assay, growth inhibition by deguelin or deguelin derivatives; format: cell-based; settings: 3 days
H322 = assay: as above; format: cell-based; settings: H322, 3 days
[2] = tested on: chorioallantoic membrane (CAM) vessel formation; assay: CAM assay, anti-angiogenic activity; format: in vivo, chick embryos
Protocol: The anti-angiogenic activity of deguelin was assessed using a CAM assay. Chick embryos were incubation for 3 days after which, about 2 ml of egg albumin was removed from the embryo with a hypodermic needle to allow the CAM and yolk sac to drop away from the shell membrane. On day 3.5, the shell was punched out and removed and the shell membrane was peeled away. […] After the two day incubation period, 500 μl of 10% fat emulsion was injected into the chorioallantoic membrane and observed microscopically.
Retinoic acid, an anti-angiogenic compound, was used as a positive control for determining anti-angiogenic response. […] This independent experiment was repeated three times with more than 20 eggs.

[3] = tested on: caspase-3, PARP, Bax, Bcl-2, Bcl-xL in 1799 cells; assay: Western blot of caspase-3, PARP and Bcl family proteins; format: cell-based
Protocol: Immunoblotting. Whole cell lysates were prepared in lysis buffer (50 mM N-[2-hydroxymethyl]-piperazine-N′-[2-ethanesulfonic acid] [HEPES; pH 7.5], 150 mM NaCl, 1.5 mM MgCl2, ImM EDTA, 0.2 mM EGTA, 1% NP40, 10% glycerol, 1 mM dithiothreitol (DTT), 1 mM phenylmethylsulfonyl fluoride, 20 mM sodium fluoride, 5 mM sodium orthovanadate, 10 μg/ml aprotinin, 10 μg/ml leupeptin, 2 μg/ml pepstatin, and 1 mM benzamidine) as described previously (Lee et al., 2002). Equivalent protein concentrations were resolved in sodium dodecyl sulfate-polyacrylamide gels and transferred to a nitrocellulose membrane. After the blocking of transblotted membrane in Tris-buffered saline (TBS) containing 0.05% Tween 20 (TBST) and 5% low fat milk, themembrane was incubated with primary antibody at the appropriate dilution in TBS-5% low-fat milk at 4° C. for 16 h and washed with TBST. The immunoblots were visualized using the ECL kit (Amersham, Inc., Arlington Heights, III) according to the manufacturer's directions. Rabbit polyclonal antibodies against human pAkt (Ser473), Akt, and pGSK-3β (Ser9), and mouse monoclonal antibody against human anti-pMAPK (Thr202/Tyr204) were purchased from Cell Signalinng Technology (Beverly, Mass.). Rabbit polyclonal anti-glycogen synthase (GSK)-3 α/β (BD Transduction Laboratories, Lexington, Ky.), rabbit polyclonal anti-Bax and anti-caspase-3 antibodies (Pharmingen, San Diego, Calif.), rabbit polyclonal anti-Bcl2 and rabbit polyclonal anti-poly (ADP-ribose) polymerase O?ARP) antibody (VIC 5) (Roche Molecular Biochemicals, Indianapolis, Ind.), goat antibodies against Erk-1, Erk-2, and β-Actin (Santa Cruz Biotechnology, Inc., Santa Cruz, Calif.) were used for western blot analysis.

H460 = assay: MTT assay, growth inhibition by deguelin or deguelin derivatives; format: cell-based; settings: H460, 3 days

SMILES: COc1cc2c(cc1OC)[C@@H]1C(=O)c3ccc4c(c3O[C@@H]1CO2)C=CC(C)(C)O4 [Deguelin]
- TUNEL and DNA fragmentation in NHBE cells (NHBE cells): neither TUNEL-positive cell population nor DNA fragmentation
- Avg. % con (H661; deguelin 10^−6M): 0.5756 % con
- MTT value, mean of replicates (unheaded line) (H661; deguelin 10^−6M): 0.0597
- MTT value, replicate (unheaded line) (H661; deguelin 10^−6M): 0.059 and 0.055 and 0.065
- Avg. % con (H661; deguelin 10^−8M): 0.60 % con
- MTT value, mean of replicates (unheaded line) (H661; deguelin 10^−8M): 0.063
- MTT value, replicate (unheaded line) (H661; deguelin 10^−8M): 0.062 and 0.056 and 0.07
- Avg. % con (H661; deguelin 10^−10M): 0.80 % con
- MTT value, mean of replicates (unheaded line) (H661; deguelin 10^−10M): 0.083
- MTT value, replicate (unheaded line) (H661; deguelin 10^−10M): 0.087 and 0.093 and 0.07
- Avg. % con (H661; deguelin 10^−12M): 0.86 % con
- MTT value, mean of replicates (unheaded line) (H661; deguelin 10^−12M): 0.089
- MTT value, replicate (unheaded line) (H661; deguelin 10^−12M): 0.09 and 0.084 and 0.094
- pIC50 [1]: > 9.00
- pIC50 (NSCLC cells): 6.00 to 7.00
- Avg. % con (Cal1; deguelin 10^−6M): 0.54 % con
- MTT value, mean of replicates (unheaded line) (Cal1; deguelin 10^−6M): 0.132
- MTT value, replicate (unheaded line) (Cal1; deguelin 10^−6M): 0.13 and 0.128 and 0.138
- Avg. % con (Cal1; deguelin 10^−8M): 0.88 % con
- MTT value, mean of replicates (unheaded line) (Cal1; deguelin 10^−8M): 0.214
- MTT value, replicate (unheaded line) (Cal1; deguelin 10^−8M): 0.204 and 0.221 and 0.216
- Avg. % con (Cal1; deguelin 10^−10M): 1.16 % con
- MTT value, mean of replicates (unheaded line) (Cal1; deguelin 10^−10M): 0.281
- MTT value, replicate (unheaded line) (Cal1; deguelin 10^−10M): 0.29 and 0.294 and 0.26
- Avg. % con (Cal1; deguelin 10^−12M): 1.30 % con
- MTT value, mean of replicates (unheaded line) (Cal1; deguelin 10^−12M): 0.317
- MTT value, replicate (unheaded line) (Cal1; deguelin 10^−12M): 0.305 and 0.328 and 0.319
- Avg. % con (H322; deguelin 10^−6M): 0.49 % con
- MTT value, mean of replicates (unheaded line) (H322; deguelin 10^−6M): 0.094
- MTT value, replicate (unheaded line) (H322; deguelin 10^−6M): 0.096 and 0.087 and 0.1
- Avg. % con (H322; deguelin 10^−8M): 0.89 % con
- MTT value, mean of replicates (unheaded line) (H322; deguelin 10^−8M): 0.173
- MTT value, replicate (unheaded line) (H322; deguelin 10^−8M): 0.172 (2×) and 0.174
- Avg. % con (H322; deguelin 10^−10M): 0.84 % con
- MTT value, mean of replicates (unheaded line) (H322; deguelin 10^−10M): 0.163
- MTT value, replicate (unheaded line) (H322; deguelin 10^−10M): 0.153 and 0.16 and 0.177
- Avg. % con (H322; deguelin 10^−12M): 0.86 % con
- MTT value, mean of replicates (unheaded line) (H322; deguelin 10^−12M): 0.166
- MTT value, replicate (unheaded line) (H322; deguelin 10^−12M): 0.168 and 0.16 and 0.17
- anti-angiogenic activity (percentage of positive eggs) ([2]; 5 nmol/egg, 2 days): 59.2%
- egg lethality ([2]; CAM assay, without any signs of thrombosis and hemorrhage): negligible
- Bcl-2 expression [3]: mild decrease
- Bcl-xL level [3]: not affected
- level of Bax [3]: dose-dependent increase
- 32-kDa caspase-3 proenzyme (with increase of 89-kDa PARP fragment) ([3]; more than 10^−8 M deguelin, 3 days): significant decrease
- Avg. % con (H460; deguelin 10^−6M): 0.17 % con
- MTT value, mean of replicates (unheaded line) (H460; deguelin 10^−6M): 0.129
- MTT value, replicate (unheaded line) (H460; deguelin 10^−6M): 0.115 and 0.141 and 0.131
- Avg. % con (H460; deguelin 10^−8M): 0.86 % con
- MTT value, mean of replicates (unheaded line) (H460; deguelin 10^−8M): 0.635
- MTT value, replicate (unheaded line) (H460; deguelin 10^−8M): 0.632 and 0.652 and 0.62
- Avg. % con (H460; deguelin 10^−10M): 1.03 % con
- MTT value, mean of replicates (unheaded line) (H460; deguelin 10^−10M): 0.762
- MTT value, replicate (unheaded line) (H460; deguelin 10^−10M): 0.783 and 0.761 and 0.743
- Avg. % con (H460; deguelin 10^−12M): 1.06 % con
- MTT value, mean of replicates (unheaded line) (H460; deguelin 10^−12M): 0.788
- MTT value, replicate (unheaded line) (H460; deguelin 10^−12M): 0.797 and 0.75 and 0.816

— US20060128792A1, “Deguelin as a chemopreventive agent for lung cancer” (priority 2002, published 2006)
